Organism: Rattus norvegicus
Assay: DrugMatrix - Regimen: Daily Repeat
Assay type: toxicity, organism-based, Sprague-Dawley
Parameters: regimen Daily Repeat, gender Male, age 6-8 weeks
Details: in vivo, po, 2 mg/kg, route oral GAVAGE, dose level Low, […]; for ABSOLUTE BASOPHIL / ABSOLUTE EOSINOPHIL / ABSOLUTE LYMPHOCYTE / ABSOLUTE MONOCYTE / ABSOLUTE SEGMENTED NEUTROPHIL / BASOPHIL / EOSINOPHIL / ERYTHROCYTE COUNT / HEMATOCRIT / HEMOGLOBIN / LEUKOCYTE COUNT / LYMPHOCYTE / MEAN CORPUSCULAR HEMOGLOBIN / MEAN CORPUSCULAR HEMOGLOBIN CONCENTRATION / MEAN CORPUSCULAR VOLUME / MONOCYTE / NEUTROPHIL / NUCLEATED RED BLOOD CELLS / PLATELET COUNT: tissue Blood; for ALANINE AMINOTRANSFERASE / ALBUMIN / ALKALINE PHOSPHATASE / ASPARTATE AMINOTRANSFERASE / BLOOD UREA NITROGEN / CARBON DIOXIDE / CHLORIDE / CHOLESTEROL / CREATINE PHOSPHOKINASE / CREATININE / GLUCOSE / LACTATE DEHYDROGENASE / LIPASE / PHOSPHORUS / POTASSIUM / SODIUM / TOTAL BILIRUBIN / TOTAL PROTEIN / URIC ACID: tissue Plasma

Compound: Cc1nnc2n1-c1ccc(Cl)cc1C(c1ccccc1)=NC2 [ALPRAZOLAM]
- ABSOLUTE BASOPHIL (72 h, time 3 day): 0 CELLS/uL
- ABSOLUTE EOSINOPHIL (72 h, time 3 day): 40.33 CELLS/uL
- ABSOLUTE LYMPHOCYTE (72 h, time 3 day): 13483.67 CELLS/uL
- ABSOLUTE MONOCYTE (72 h, time 3 day): 168.67 CELLS/uL
- ABSOLUTE SEGMENTED NEUTROPHIL (72 h, time 3 day): 1074 CELLS/uL
- BASOPHIL (72 h, time 3 day): 0%
- EOSINOPHIL (72 h, time 3 day): 0.33%
- ERYTHROCYTE COUNT (72 h, time 3 day): 5.44 x10E6/uL
- HEMATOCRIT (72 h, time 3 day): 34.8%
- HEMOGLOBIN (72 h, time 3 day): 13.4 G/DL
- LEUKOCYTE COUNT (72 h, time 3 day): 14.77 x10E3/uL
- LYMPHOCYTE (72 h, time 3 day): 91%
- MEAN CORPUSCULAR HEMOGLOBIN (72 h, time 3 day): 24.7 pg
- MEAN CORPUSCULAR HEMOGLOBIN CONCENTRATION (72 h, time 3 day): 38.5 G/DL
- MEAN CORPUSCULAR VOLUME (72 h, time 3 day): 64.17 fL
- MONOCYTE (72 h, time 3 day): 1.33%
- NEUTROPHIL (72 h, time 3 day): 7.33%
- NUCLEATED RED BLOOD CELLS (72 h, time 3 day): 0 /100WBC
- PLATELET COUNT (72 h, time 3 day): 1211 x10E3/uL
- ALANINE AMINOTRANSFERASE (72 h, time 3 day): 78.67 u/L
- ALBUMIN (72 h, time 3 day): 4.13 G/DL
- ALKALINE PHOSPHATASE (72 h, time 3 day): 386.33 u/L
- ASPARTATE AMINOTRANSFERASE (72 h, time 3 day): 99 u/L
- BLOOD UREA NITROGEN (72 h, time 3 day): 15 mg/dL
- CARBON DIOXIDE (72 h, time 3 day): 27 mmol/L
- CHLORIDE (72 h, time 3 day): 99 MEQ/L
- CHOLESTEROL (72 h, time 3 day): 68.67 mg/dL
- CREATINE PHOSPHOKINASE (72 h, time 3 day): 276 u/L
- CREATININE (72 h, time 3 day): 0.2 mg/dL
- GLUCOSE (72 h, time 3 day): 160.33 mg/dL
- LACTATE DEHYDROGENASE (72 h, time 3 day): 401.67 u/L
- LIPASE (72 h, time 3 day): 10.33 u/L
- PHOSPHORUS (72 h, time 3 day): 13.67 mg/dL
- POTASSIUM (72 h, time 3 day): 7.37 MEQ/L
- SODIUM (72 h, time 3 day): 142.63 MEQ/L
- TOTAL BILIRUBIN (72 h, time 3 day): 0.23 mg/dL
- TOTAL PROTEIN (72 h, time 3 day): 5.63 G/DL
- URIC ACID (72 h, time 3 day): 1.7 mg/dL
- ABSOLUTE BASOPHIL (120 h, time 5 day): 0 CELLS/uL
- ABSOLUTE EOSINOPHIL (120 h, time 5 day): 0 CELLS/uL
- ABSOLUTE LYMPHOCYTE (120 h, time 5 day): 13775.33 CELLS/uL
- ABSOLUTE MONOCYTE (120 h, time 5 day): 53.67 CELLS/uL
- ABSOLUTE SEGMENTED NEUTROPHIL (120 h, time 5 day): 1637.67 CELLS/uL
- BASOPHIL (120 h, time 5 day): 0%
- EOSINOPHIL (120 h, time 5 day): 0%
- ERYTHROCYTE COUNT (120 h, time 5 day): 5.79 x10E6/uL
- HEMATOCRIT (120 h, time 5 day): 35.1%
- HEMOGLOBIN (120 h, time 5 day): 13.93 G/DL
- LEUKOCYTE COUNT (120 h, time 5 day): 15.47 x10E3/uL
- LYMPHOCYTE (120 h, time 5 day): 89%
- MEAN CORPUSCULAR HEMOGLOBIN (120 h, time 5 day): 24.07 pg
- MEAN CORPUSCULAR HEMOGLOBIN CONCENTRATION (120 h, time 5 day): 39.7 G/DL
- MEAN CORPUSCULAR VOLUME (120 h, time 5 day): 60.57 fL
- MONOCYTE (120 h, time 5 day): 0.33%
- NEUTROPHIL (120 h, time 5 day): 10.67%
- NUCLEATED RED BLOOD CELLS (120 h, time 5 day): 0 /100WBC
- PLATELET COUNT (120 h, time 5 day): 1214.33 x10E3/uL
- ALANINE AMINOTRANSFERASE (120 h, time 5 day): 67 u/L
- ALBUMIN (120 h, time 5 day): 4 G/DL
- ALKALINE PHOSPHATASE (120 h, time 5 day): 343.67 u/L
- ASPARTATE AMINOTRANSFERASE (120 h, time 5 day): 109.67 u/L
- BLOOD UREA NITROGEN (120 h, time 5 day): 15 mg/dL
- CARBON DIOXIDE (120 h, time 5 day): 27 mmol/L
- CHLORIDE (120 h, time 5 day): 101 MEQ/L
- CHOLESTEROL (120 h, time 5 day): 81.67 mg/dL
- CREATINE PHOSPHOKINASE (120 h, time 5 day): 429 u/L
- CREATININE (120 h, time 5 day): 0.19 mg/dL
- GLUCOSE (120 h, time 5 day): 142.33 mg/dL
- LACTATE DEHYDROGENASE (120 h, time 5 day): 632 u/L
- LIPASE (120 h, time 5 day): 10.67 u/L
- PHOSPHORUS (120 h, time 5 day): 11.1 mg/dL
- POTASSIUM (120 h, time 5 day): 5.98 MEQ/L
- SODIUM (120 h, time 5 day): 144.97 MEQ/L
- TOTAL BILIRUBIN (120 h, time 5 day): 0.13 mg/dL
- TOTAL PROTEIN (120 h, time 5 day): 5.63 G/DL
- URIC ACID (120 h, time 5 day): 1.63 mg/dL

Reference: ChEMBL document CHEMBL3885881, “DrugMatrix”
